Test results as given in patent US20100204328A1, “Solution and Method to Reduce, Treat and/or Prevent Oxidative Stress and Cell Activation” (priority 2006, published 2010).
Read-outs that look alike come from different tables or passages of the source.

Columns and labels:
isolated Leukocytes = assay: Design-of-experiments screening of antioxidants: intracellular free radical formation in PMA-stimulated isolated leukocytes (96-well plate, fluorescence kinetics); format: cell-based, human; settings: model, other substances on a medium level, FIG. 9
Procedure: An often discussed therapeutic intervention is the addition of substances with antioxidative properties to balance the oxidative/antioxidative system. In our work we performed a systematic screening of such antioxidants, see FIG. 2. The screening was done in a 96-well-plate setup where isolated Leukocytes from healthy donors were pre-incubated with antioxidants for 1 hour. The chosen substances were N-acetyl-cysteine (NAC), gluconic acid (GA), glutathione (GSH) and vitamin […] fluorescence dye was added as a marker for intracellular free radical formation. Afterwards the cells were stimulated by phorbol-myristate-acetate (PMA) and free radical formation was recorded as fluorescence signal over time. The dye in this assay is membrane-permeable and non-fluorescent when it is added. Diffusing once into the cell, enzymes convert it to a readily oxidizable fluorescence dye and the intracellular formation of free radicals can be measured. In order to perform a systematic screening of these substances we would have had to carry out a lot of experiments. Due to the lack of blood donors we chose the methodology of design of experiments, see FIG. 3. Here an experimental plan is generated on statistical basis and a mathematical model can be established. In our case we chose a Centrum Composite Circumscribed-Design (CCC), which is a combination of a full-factorial and a Central Composite-Design (CCD) with a center point. Every single experiment was carried out three times. Besides saving many experiments an additional advantage is the consideration of interactions and quadratic influences. The software tool Mode generates the experimental plan where the combinations of the substances vary according to the chosen CCC-Design, see FIG. 4. Out of the measured fluorescence kinetics a free-radical-inhibition-ratio was calculated and implemented. A ratio of 1 relates to 100% inhibition of free radical formation. The obtained data was fitted by multiple linear regression analysis, see FIG. 5. The influence of single substances, its quadratic terms and interactions between the substances are considered in the shown equation. The quality of the model fit is defined in the summary plot. R^2 stands for regression, Q^2 for prediction quality, MV for model validity and Rep for reproducibility. […] The model has to be further optimised. To identify a model-weakness a closer look into the model is required.

White blood cells (WBC) = assay: Inhibition of cell activation/ROS-generation by addition of free radical scavengers (H2DCF-DA fluorescence); format: cell-based, human; settings: WBC preincubated 30-60 minutes, PMA or LPS stimulus, FIG. 15
Procedure: Other macromolecules with SH sites could also be applied.
White blood cells (WBC) were isolated from freshly donated human whole blood. This was done by collecting whole blood from healthy donors on Heparin anticoagulation. Leukocytes were isolated out of the whole blood with the help of an isolation gradient (Polymorphprep). Isolated Leukocytes were diluted in PBS or RPMI 1640 cell culture media and a concentration of 2×10^6/ml was chosen. The cells were stored at 37° in 5% CO2. The cells were preincubated with the substances at 37° C. for 30-60 minutes. Afterwards the cells were stimulated with 50 ng/ml PMA or 30 EU/ml LPS. For ROS-measurement a fluorescence dye (dichlorodihydrofluorescein-diacetate, H2DCF-DA) was added at 10 μM final concentration. The cells were incubated with the substance, the fluorescence dye and the activator for 2 hrs and the fluorescence intensity kinetics was measured over time. To compare the result between two substances, the fluorescence intensity at a certain time point, e.g. 30 minutes) was recorded. For comparison the fluorescence at a certain time is shown in the diagram in FIG. 15.

ROS = assay: ROS-inhibition with pre-incubation versus post-incubation (pre-stimulation) of cells; format: cell-based; settings: single substances, FIGS. 31 to 34
Procedure: Therefore, the ROS-inhibition was tested in two different applications:
1. Pre-incubation (activation of cells after incubation with a substance or combination of substances according to the invention)
2. Post-incubation (addition of a substance or a combination of substances according to the invention after cell activation)
All substances or combinations thereof were tested in the same concentration ranges as in the screening of the combinations as described before.

WBC [1] = assay: Inhibition of cell activation/ROS-generation by free radical scavengers via the membrane; format: cell-based, human; settings: low flux membrane, incubation 60 mins, PMA, FIG. 17
Procedure: WBC were isolated from human blood donation. Cells were separated by a membrane from the second compartment which comprises a buffer-system containing a radical scavenger (incubation time 60 mins). Afterwards a fluorescence dye (H2DCF-DA) was added to the cells and incubated for 25 mins. Finally stimulation of WBCs was performed by PMA and fluorescence was measured over time, see FIG. 17.
Positive control: with stimulus (2nd compartment PBS-buffer),
Negative control: without stimulus (2nd compartment PBS-buffer)

CD11b = CD11b expression of granulocytes in LPS-incubated whole blood by flow cytometry; format: cell-based; settings: LPS 10/100 U/ml 45 minutes, then substance 4 hrs, FIG. 22
Procedure: Whole blood was incubated with LPS (10/100 U/ml) for 45 minutes. Ethyl pyruvate, N-acetyl-cysteine and gluconate were added to the stimulated system and incubated for 4 hrs. CD11b Expression of granulocytes was measured with flow cytometry, see FIG. 22.

WBC [2] = assay: Reduction of ROS during perfusion through hollow fiber minimodule; format: cell-based, human; settings: scavenger added to dialysis fluid, counter current, single pass, FIG. 19
Procedure: WBC were isolated from human blood donation. Cells were stimulated by PMA and after one hour incubation a fluorescence dye (H2DCF-DA) was added to the cells and incubated for another 25 mins. The cell suspension was pumped single pass through a hollow fiber minimodule. On the dialysate pathway dialysis fluid with or without radical scavenger was pumped in counter current. Fluorescence was measured at the dialyzer inlet and outlet and fluorescence reduction in the filter was calculated. Negative control: PBS-buffer without radical scavenger as dialysis fluid, see FIG. 19.

Interleukin 6 = assay: IL-6 expression in LPS-incubated whole blood by flow cytometry; format: cell-based; settings: whole blood with LPS, substance added directly or after 2 hrs, measured after 4 hrs; for expression of IL6: FIG. 21
Text: Further we analyzed intracellular IL-6 concentrations—indicator of proinflammatory cell activation—by flow cytometry and by this we were also able to analyze the percentage of […]/activated cells, see FIG. 20. Shown are the results for intracellular IL-6. Further data were generated to show: • (1) That use of LPS as primary stimulus instead of PMA (i.e. other cell activation pathway) is inducing similar activation pattern. LPS could stand for a septic/bacterial infection environment instead of a pro-oxidative environment. • (2) That additional and more complete interventions in the pathophysiological sequence through scavengers reduces also the expression of cellular surface markers like CD11b (an indicator of enhanced adhesion to vascular walls).
Whole blood was incubated with LPS; ethyl pyruvate and N-acetyl-cysteine, respectively were added directly or after 2 hrs. Expression of Interleukin 6 was measured after 4 hrs with flow cytometer, see FIG. 21.

[3] = cited from earlier work
[4] = FIG. 25; cited from earlier work

For N[C@@H](CCC(=O)N[C@@H](CS)C(=O)NCC(=O)O)C(=O)O [glutathione], the “influence of the concentration of a single substance on the ROS-Inhibition ratio” value (“influence … on the ROS-Inhibition ratio” for short) (isolated Leukocytes) was “negative gradient with increasing concentration”, the free radical formation (White blood cells (WBC)) was “able to inhibit free radical formation” and the ROS inhibition (ROS) was 55-65%.

For O=C(O)[C@H](O)[C@@H](O)[C@H](O)[C@H](O)CO [gluconic acid], the “influence … on the ROS-Inhibition ratio” value (isolated Leukocytes) was “quadratic character”, the free radical formation (White blood cells (WBC)) was “able to inhibit free radical formation” and the “free radical formation, scavenger acting through the membrane” value (WBC [1]) was “capable to inhibit”. The “expression of CD11b adhesion marker” value (CD11b) was “reduce expression of CD11b adhesion marker” and the ROS inhibition (ROS) was 15-30%.

For O=C1O[C@H]([C@@H](O)CO)C(O)=C1O [vitamin C], the “influence … on the ROS-Inhibition ratio” value (isolated Leukocytes) was “negative gradient with increasing concentration” and the ROS inhibition (ROS) was 20-80%.

In the case of CC(=O)N[C@H]1C(O)O[C@H](CO)[C@@H](O)[C@@H]1O (stereo partly drawn) [N-acetyl-glucosamine], the free radical formation (White blood cells (WBC)) is reported as “able to inhibit free radical formation”.

With CCOC(=O)C(C)=O [ethyl pyruvate] the “free radicals on the blood side in the dialyzer and in the intracellular compartment” value (WBC [2]) was “free radicals are reduced”, the “number of IL-6 positive cells” value (Interleukin 6) was “reduce the number of IL-6 positive cells” and the “expression of IL6” value (Interleukin 6) was “reduce the expression of IL6”. For the same molecule, the “expression of CD11b adhesion marker” value (CD11b) was “reduce expression of CD11b adhesion marker”.

In the case of CC(=O)N[C@@H](CS)C(=O)O [N-acetyl-cysteine], the “influence … on the ROS-Inhibition ratio” value (isolated Leukocytes) is reported as “quadratic character”, the free radical formation (White blood cells (WBC)) is reported as “able to inhibit free radical formation” and the “free radicals on the blood side in the dialyzer and in the intracellular compartment” value (WBC [2]) is reported as “free radicals are reduced”. For the same molecule, the “number of IL-6 positive cells” value (Interleukin 6) was “reduce the number of IL-6 positive cells”, the “expression of IL6” value (Interleukin 6) was “reduce the expression of IL6” and the “expression of CD11b adhesion marker” value (CD11b) was “reduce expression of CD11b adhesion marker”. For the same molecule, the ROS inhibition (ROS) was 60-80%, the “tolerability of rather high plasma levels” value ([3]; application as an antidote in acute situations) was “well tolerated” and the plasma levels ([3]; intravenous application, compared with oral) was “higher plasma levels”. For the same molecule, the bioavailability ([3]; oral application) was “poor bioavailability”, the plasma levels ([3]; oral application) was 3000 to 30000 nM and the “plasma level at which first beneficial effects could be shown” value [4] was 12 µM.
